The term melting point denotes the temperature, or range, at which the solid turns liquid. Compound `CC(Oc1cccc2ccccc12)C(=O)Nc1ccc(Cl)cc1` (stereo not drawn) [Compound 93, N-(4-chlorophenyl)-2-(1-naphthalenyloxy)propanamide] registered a melting point of 146 to 148 °C.

On to `CC(Oc1cccc2ccccc12)c1cn(-c2ccc(Cl)cc2)nn1` (stereo not drawn) [Compound 1, 1-(4-chlorophenyl)-4-(1-(naphthalene-1-yloxy)ethyl)-1H-1,2,3-triazole], for which the melting point lay within 98 to 100 °C.

For `O=C(Nc1ccc(Cl)cc1)C(Oc1cccc2ccccc12)c1ccccc1` (stereo not drawn) [Compound 102, N-(4-chlorophenyl)-α-(1-naphthalenyloxy)benzeneacetamide], the melting point was 176 to 178 °C.

Turning to `C[C@@H](Oc1cccc2ncccc12)c1cn(-c2ccc(Cl)cc2)nn1` [Compound 21, (R)-5-(1-(1-(4-chlorophenyl)-1H-1,2,3-triazol-4-yl)ethoxy)quinoline], the melting point was 94 to 96 °C.

Take `CC(Oc1cccc2c1ccc[n+]2[O-])c1cn(-c2ccc(Cl)cc2)nn1` (stereo not drawn) [Compound 25, 5-(1-(1-(4-chlorophenyl)-1H-1,2,3-triazol-4-yl)ethoxy)quinoline 1-oxide]: the melting point lay within 165 to 167 °C.

In the case of `CC(Oc1ccnc2ccccc12)c1cn(-c2ccc(Cl)cc2)nn1` (stereo not drawn) [Compound 13, 4-(1-(1-(4-chlorophenyl)-1H-1,2,3-triazol-4-yl)ethoxy)quinoline], the melting point was in the range of 128 to 130 °C.

In turn, `CC(Oc1cc[n+]([O-])c2ccccc12)c1cn(-c2ccc(Cl)c(Cl)c2)nn1` (stereo not drawn) [Compound 26, 4-(1-(1-(3,4-dichlorophenyl)-1H-1,2,3-triazol-4-yl)ethoxy)quinoline 1-oxide] showed a melting point of 216 to 218 °C.

In the case of `C[C@@H](Oc1cccc2c1ccc[n+]2[O-])c1cn(-c2ccc(Cl)cc2)nn1` [Compound 32, (R)-5-(1-(1-(4-chlorophenyl)-1H-1,2,3-triazol-4-yl)ethoxy)quinoline 1-oxide], the melting point is 184 to 186 °C.

For `C[C@H](Oc1ccnc2ccccc12)c1cn(-c2ccc(Cl)c(Cl)c2)nn1` [Compound 30, (S)-4-(1-(1-(3,4-dichlorophenyl)-1H-1,2,3-triazol-4-yl)ethoxy)quinoline], the melting point was in the range of 64 to 66 °C.

The compound `CC(Oc1ccnc2ccccc12)c1cn(-c2ccc(Cl)c(Cl)c2)nn1` (stereo not drawn) [Compound 14, 4-(1-(1-(3,4-dichlorophenyl)-1H-1,2,3-triazol-4-yl)ethoxy)quinoline] showed a melting point of 62 to 64 °C.

The compound `O=C(Nc1ccc(Cl)cc1)C(Oc1cccc2ccccc12)C1CC1` (stereo not drawn) [Compound 119, N-(4-chlorophenyl)-2-cyclopropyl-2-(1-naphthalenyloxy)acetamide] had a melting point of 204 to 206 °C.

Take `C[C@@H](Oc1ccnc2ccccc12)c1cn(-c2ccc(C#N)c(Cl)c2)nn1`: the melting point fell in the range of 176 to 178 °C.

For the compound `CC(C)C(Oc1cccc2ccccc12)C(=O)Nc1ccc(Cl)cc1` (stereo not drawn) [Compound 116, N-(4-chlorophenyl)-3-methyl-2-(1-naphthalenyloxy)butanamide], the melting point lay in the range of 150 to 152 °C.

Compound `C[C@H](Oc1ccnc2ccccc12)c1cn(-c2ccc(C#N)c(Cl)c2)nn1` displayed a melting point of 176 to 178 °C.

`Clc1ccc(-n2cc(COc3ccnc4ccccc34)nn2)cc1` [Compound 17, 4-((1-(4-chlorophenyl)-1H-1,2,3-triazol-4-yl)methoxy)quinoline] displayed a melting point of 230 to 232 °C.

In turn, `CC(Oc1ccnc2ccccc12)c1cn(-c2ccc(C#N)c(Cl)c2)nn1` (stereo not drawn) yielded a melting point of 194 to 196 °C.

As for `CC(Oc1ccnc2ccccc12)c1cn(-c2ccc(C#N)cc2)nn1` (stereo not drawn) [Compound 15, 4-(4-(1-(quinolin-4-yloxy)ethyl)-1H-1,2,3-triazol-1-yl)benzonitrile], the melting point lay in the range of 176 to 178 °C.

In turn, `C[C@@H](Oc1ccnc2ccccc12)c1cn(-c2ccc(Cl)c(Cl)c2)nn1` [Compound 28, (R)-4-(1-(1-(3,4-dichlorophenyl)-1H-1,2,3-triazol-4-yl)ethoxy)quinoline] displayed a melting point of 62 to 64 °C.
